Source: US7332476B2, “Pyridyl substituted ketolide antibiotics” (Novartis AG, priority 2003, dated 2008)
Converted amounts (≈) assume the structure as drawn.

What was measured:
Experiment in all cases: MIC, broth microdilution (NCCLS)
[1] = system: S. pneumoniae Stpn_Erm 6849; assay type: cell-based, Streptococcus pneumoniae; settings: Table 5, Strain ID H (Table 4): S. pneumoniae Stpn_Erm 6849; unit assumed
In short: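 Lowest drug concentration giving no visible growth after 18-24 hours at 35° C. under 5-10% CO2 was taken as MIC. Twofold serial dilutions in CAMHB plus 2-5% lysed horse blood, final inoculum 3×10^5–7×10^5 CFU/ml, per NCCLS microdilution.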

[2] = system: Streptococcus pyogenes Stpy_8668; assay type: cell-based; settings: Table 5, Strain ID D (Table 4): S. pyogenes Stpy_8668
In short: (§1)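 Broth microdilution per NCCLS in cation-adjusted Mueller-Hinton broth, with 2-5% lysed horse blood added for S. pneumoniae. Inoculum 3×10^5–7×10^5 CFU/ml, 2-fold drug dilutions, 18-24 h at 35° C; S. pneumoniae under 5-10% CO2, others ambient air. MIC = lowest concentration preventing visible growth.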

[3] = system: Streptococcus pneumoniae Stpn_280-962; assay type: cell-based; settings: Table 5, Strain ID G (Table 4): S. pneumoniae Stpn_280-962 Pen S
In short: as §1

[4] = system: Enterococcus faecalis Enfa_29212; assay type: cell-based; settings: Table 5, Strain ID C (Table 4): E. faecalis Enfa_29212
In short: as §1

[5] = system: Streptococcus pneumoniae Stpn_Erm S 4297; assay type: cell-based; settings: Table 5, Strain ID I (Table 4): S. pneumoniae Stpn_Erm S 4297
In short: as §1

[6] = system: Staphylococcus epidermidis Step_14990; assay type: cell-based; settings: Table 5, Strain ID A (Table 4): S. epidermidis Step_14990; in µg/mL (unit assumed)
In short: as §1

[7] = system: Streptococcus pneumoniae Stpn_Mef S 3427; assay type: cell-based; settings: Table 5, Strain ID K (Table 4): S. pneumoniae Stpn_Mef S 3427
In short: as §1

[8] = system: Haemophilus influenzae Hain_49247; assay type: cell-based; settings: Table 5, Strain ID L (Table 4): H. influenzae Hain_49247; unit assumed
[9] = system: Staphylococcus epidermidis Step_f50654; assay type: cell-based; settings: Table 5, Strain ID B (Table 4): S. epidermidis Step_f50654 Pen S; in µg/mL (unit assumed)
In short: as §1

[10] = system: Streptococcus pneumoniae Stpn_Mef 5654; assay type: cell-based; settings: Table 5, Strain ID J (Table 4): S. pneumoniae Stpn_Mef 5654; in µg/mL (unit assumed)
In short: as §1

[11] = system: Streptococcus pneumoniae Stpn_49619; assay type: cell-based; settings: Table 5, Strain ID E (Table 4): S. pneumoniae Stpn_49619
In short: as §1

[12] = system: Streptococcus pneumoniae Stpn_297-749; assay type: cell-based; settings: Table 5, Strain ID F (Table 4): S. pneumoniae Stpn_297-749 Pen R
In short: as §1

E. coli Esco_25922 = assay type: cell-based; settings: Table 5, Strain ID M (Table 4): E. coli Esco_25922; unit assumed
Description: Strains. The bacterial isolates listed in Table 4 were cultivated from −70° C. frozen stocks by two consecutive overnight passages (P1, P2) at 35° C. on 5% blood agar (Remel, Lenexa, Kans.). Chocolate agar (Remel) is used for Haemophilus influenzae. H. influenzae and Streptococcus pneumoniae are incubated in 5-10% CO2
Drug Stock Preparation. To determine the amount of solvent to be used to give the desired final concentration, the formula “weight obtained in mg/final concentration in mg/ml” will be used. It will give the amount of solvent in ml needed to be added to give the desired concentration. For example, if 2.5 mg/ml is the desired concentration and the weight of compound is 13.7 mg, then the amount of solvent to be added is […]. Methanol is used as the solvent to dissolve the test compounds. Further dilution of stock is done in sterile, deionized water. Drug stocks are kept frozen at −70° C., protected from light.
Susceptibility Testing. MICs are determined by the broth microdilution method in accordance with the NCCLS guidelines. In brief, organism suspensions are adjusted to a 0.5 McFarland standard to yield a final inoculum between 3×10^5 and 7×10^5 CFU/ml. Drug dilutions and inocula are made in sterile, cation adjusted Mueller-Hinton Broth (CAMHB) (Remel) for all but S. pneumoniae [CAMHB with 2-5% lysed horse blood (Remel)] and H. influenzae [Haemophilus Test Medium (Remel)]. An inoculum volume of 100 μl is added to wells containing 100 μl of broth with 2-fold serial dilutions of drug. All inoculated microdilution trays are incubated in ambient air at 35° C. for 18-24 hours, except for S. pneumoniae, and H. influenzae (both at 5-10% CO2).
Following appropriate incubation, the MIC is determined and the MIC is defined as the lowest concentration of the drug that prevented visible growth.

| SMILES | MIC [1] [µg/mL] | MIC [2] | MIC [3] | MIC ([4]; in µg/mL (unit assumed)) | MIC ([5]; unit assumed) [µg/mL] | MIC [6] | MIC ([7]; in µg/mL (unit assumed)) | MIC [8] [µg/mL] | MIC [9] | MIC [10] | MIC [11] | MIC [12] | MIC (E. coli Esco_25922) [µg/mL] | MIC ([2]; unit assumed) [µg/mL] | MIC [7] | MIC [4] | MIC [5] | MIC ([3]; unit assumed) [µg/mL] | MIC ([11]; unit assumed) [µg/mL] | MIC ([12]; unit assumed) [µg/mL] |
| --- | --- | --- | --- | --- | --- | --- | --- | --- | --- | --- | --- | --- | --- | --- | --- | --- | --- | --- | --- | --- |
| CC[C@H]1OC(=O)[C@H](C)C(=O)[C@H](C)[C@@H](OC2O[C@H](C)C[C@H](N(C)C)[C@H]2O)[C@@](C)(OC)C[C@@H](C)C(=O)[C@H](C)[C@@H]2[C@@H]1OC(=O)N2CCCCn1cnc2ncccc21 (stereo partly shown) [Compound 4713] | 0.78 (≈ 1.01 µM) | =0.5 | =0.5 | 0.1 | 0.1 (≈ 0.13 µM) | 0.4 | 0.4 | 3.13 (≈ 4.05 µM) | 0.4 | 3.13 | =0.5 | =0.5 | 50 (≈ 64.8 µM) | – | – | – | – | – | – | – |
| CC[C@H]1OC(=O)[C@H](C)C(=O)[C@H](C)[C@@H](OC2O[C@H](C)C[C@H](N(C)C)[C@H]2O)[C@@](C)(OC)C[C@@H](C)C(=O)[C@H](C)[C@@H]2[C@@H]1OC(=O)N2CCCn1cnc(-c2ccccc2)c1 (stereo partly shown) [Compound 4714] | > 50 | – | =0.5 | 0.4 | 6.25 (≈ 7.98 µM) | 6.25 | 0.1 | > 50 | 6.25 | 0.4 | =0.5 | =0.5 | > 50 | 0.1 (≈ 0.128 µM) | – | – | – | – | – | – |
| CC[C@H]1OC(=O)[C@H](C)C(=O)[C@H](C)[C@@H](OC2O[C@H](C)C[C@H](N(C)C)[C@H]2O)[C@@](C)(OC)C[C@@H](C)C(=O)[C@H](C)[C@@H]2[C@@H]1OC(=O)N2CCCn1cnc2cccnc21 (stereo partly shown) [Compound 4716] | > 50 | – | =0.5 | 0.78 | 25 (≈ 33 µM) | 6.25 | 0.4 | 25 (≈ 33 µM) | 12.5 | 0.78 | =0.5 | =0.5 | > 50 | 0.1 (≈ 0.132 µM) | – | – | – | – | – | – |
| CC[C@H]1OC(=O)[C@H](C)C(=O)[C@H](C)[C@@H](OC2O[C@H](C)C[C@H](N(C)C)[C@H]2O)[C@@](C)(OC)C[C@@H](C)C(=O)[C@H](C)[C@@H]2[C@@H]1OC(=O)N2CCCCn1ccc2ccccc21 (stereo partly shown) [Compound 4717] | 6.25 (≈ 8.12 µM) | =0.5 | =0.5 | 0.1 | 0.4 (≈ 0.519 µM) | 0.2 | – | 6.25 (≈ 8.12 µM) | 0.4 | 0.2 | =0.5 | =0.5 | > 50 | – | =0.05 | – | – | – | – | – |
| CC[C@H]1OC(=O)[C@H](C)C(=O)[C@H](C)[C@@H](OC2O[C@H](C)C[C@H](N(C)C)[C@H]2O)[C@@](C)(OC)C[C@@H](C)C(=O)[C@H](C)[C@@H]2[C@@H]1OC(=O)N2CCCCc1ccc2ccccc2n1 (stereo partly shown) [Compound 5960] | 25 (≈ 32 µM) | =0.05 | =0.05 | – | 0.1 (≈ 0.128 µM) | 0.2 | – | 3.13 (≈ 4 µM) | 0.2 | 0.2 | =0.05 | =0.05 | 25 (≈ 32 µM) | – | =0.05 | =0.05 | – | – | – | – |
| CC[C@H]1OC(=O)[C@H](C)C(=O)[C@H](C)[C@@H](OC2O[C@H](C)C[C@H](N(C)C)[C@H]2O)[C@@](C)(OC)C[C@@H](C)C(=O)[C@H](C)[C@@H]2[C@@H]1OC(=O)N2CCCCc1ccnc2ccccc12 (stereo partly shown) [Compound 6220] | 3.13 (≈ 4 µM) | =0.05 | =0.05 | – | 0.1 (≈ 0.128 µM) | 0.1 | – | 1.56 (≈ 1.99 µM) | 0.1 | 0.4 | =0.05 | =0.05 | 6.25 (≈ 7.99 µM) | – | =0.5 | =0.05 | – | – | – | – |
| CC[C@H]1OC(=O)[C@H](C)C(=O)[C@H](C)[C@@H](OC2O[C@H](C)C[C@H](N(C)C)[C@H]2O)[C@@](C)(OC)C[C@@H](C)C(=O)[C@H](C)[C@@H]2[C@@H]1OC(=O)N2CCCCn1cnc(-c2ccccc2)c1 (stereo partly shown) [Compound 6221] | 0.1 (≈ 0.125 µM) | =0.05 | =0.05 | – | – | 0.1 | – | 3.13 (≈ 3.93 µM) | 0.1 | 0.4 | =0.05 | =0.05 | 25 (≈ 31.4 µM) | – | =0.05 | =0.05 | =0.05 | – | – | – |
| CC[C@H]1OC(=O)[C@H](C)C(=O)[C@H](C)[C@@H](OC2O[C@H](C)C[C@H](N(C)C)[C@H]2O)[C@@](C)(OC)C[C@@H](C)C2=NCCN3C(=O)O[C@H]1[C@H]3[C@H]2C (stereo partly shown) [Compound 6222] | > 50 | – | – | 0.4 | > 50 | 1.56 | 0.4 | 25 (≈ 40.1 µM) | 1.56 | 0.78 | – | – | 50 (≈ 80.2 µM) | 0.2 (≈ 0.321 µM) | – | – | – | 0.2 (≈ 0.321 µM) | 0.2 (≈ 0.321 µM) | 0.4 (≈ 0.641 µM) |
| CC[C@H]1OC(=O)[C@H](C)C(=O)[C@H](C)[C@@H](OC2O[C@H](C)C[C@H](N(C)C)[C@H]2O)[C@@](C)(OC)C[C@@H](C)C2=N[C@@H](C)CN3C(=O)O[C@H]1[C@H]3[C@H]2C (stereo partly shown) [Compound 6223] | > 50 | – | – | 0.78 | > 50 | 1.56 | 0.4 | > 50 | 3.13 | 0.78 | – | – | 50 (≈ 78.4 µM) | 0.2 (≈ 0.314 µM) | – | – | – | 0.2 (≈ 0.314 µM) | 0.2 (≈ 0.314 µM) | 0.2 (≈ 0.314 µM) |
| CC[C@H]1OC(=O)[C@H](C)C(=O)[C@H](C)[C@@H](OC2O[C@H](C)C[C@H](N(C)C)[C@H]2O)[C@@](C)(OC)C[C@@H](C)C(=O)[C@H](C)[C@H]2N(CCCCn3cnc(-c4cccnc4)c3)C(=O)O[C@]12CC (stereo partly shown) [Compound 7280] | 0.4 (≈ 0.484 µM) | =0.05 | =0.05 | 0.1 | – | 0.2 | 0.1 | 6.25 (≈ 7.57 µM) | 0.2 | 0.4 | =0.05 | =0.05 | 25 (≈ 30.3 µM) | – | – | – | =0.05 | – | – | – |
